Experimental data reported in publication PMC5537869, “Role of Zucchini and Its Distinctive Components in the Modulation of Degenerative Processes: Genotoxicity, Anti-Genotoxicity, Cytotoxicity and Apoptotic Effects” (Nutrients, 2017).
Values joined by “and” are separate entries in the source; they are usually repeats but may differ in a detail not shown here. Identical values can stand only once.

Experiments:
HL60 cells [1] = test: Nucleosomal DNA fragmentation assay; format: cell-based, human; conditions: HL60, 5 h, same concentrations as in the cytotoxicity assay, agarose gel
Method: The HL60 tumoral cell line was used with the aim of analyse the apoptotic induction. […] A non-treated cells control was included for each experiment. For DNA fragmentation, treated cells were collected, were centrifuged at 4000 rpm for 5 min and washed with PBS. […] The agarose gels were run at 50 V for 90 min in TBE (Tris/Borate/EDTA) buffer and then observed and photographed under UV light. For Annexin V-PI test, Annexin V Apoptosis Detection Kit ([…] Biotech S.L., Cordoba, Spain) was used. Briefly, cells were resuspended in 100 μL of Binding buffer solution 1× and subsequently, 5 μL AnnexinV-FITC (Fluorescein isothiocyanate) and 10 μL propidium iodide were added, and samples were incubated for 10 min at room temperature in darkness, and flow cytometry (Beckman Coulter Inc., Brea, CA, USA) was then used to analyze the rate of apoptosis.

[2] = tested on: Drosophila melanogaster transheterozygous larvae; test: Anti-genotoxicity (combined treatment with hydrogen peroxide 120 mM), Drosophila wing spot test (SMART); format: in vivo; design: key to Mann-Whitney Test: n.s.: non-significant; conditions: for Large Spots (>2 Cells) m = 5 / Small Spots (1–2 Cells) m = 2 / Total Spots m = 2 / Twin Spots m = 5 / Mann-Whitney Test: combined treatment with H2O2 120 mM; for Mann-Whitney Test: vs negative control
Method: (§1) The principles and basic procedures for the Drosophila wing spot test have been described by Graf et al., and in previous works of our group. Two strains of flies carrying wing genetic markers on the left arm of chromosome 3: multiple wing […] used. The transheterozygous larvae were obtained by crossing […] (Third Multiple 3), Bd^S(Beaded […]) virgin females. Hybrid eggs derived from crossing optimally fertile flies were collected over an 8 h period. […] Concurrent negative controls with the solvent alone (water) and positive controls with hydrogen peroxide (120 mM) were also run. Anti-genotoxicity tests were carried out by mixing the mutagen (hydrogen peroxide, 120 mM) with the compounds solution. After emergence, adult flies were collected from the treatment vials and stored in 70% ethanol. The wings of the flies were removed under a stereomicroscope using a pair of entomological tweezers, similar number of males and females-wings were mounted in Faure's solution on microscope slides and inspected, under 400× magnification, for the presence of clones of cells. The mutant clones were classified into three types: […] The appearance of twin spots indicated the recombinogenic activity of the chemotherapeutic agent (Figure 1). The frequencies of spots per fly of treated series were compared with its corresponding negative control series (water) to analyze Somatic Mutation and Recombination Test (SMART) data. For maximum power, statistical analyses were done exclusively for the total number of spots recovered. The non-parametric U test of Mann, Whitney and Wilcoxon was used to avoid weak positive and inconclusive results on SMART and to achieve a well-defined statistical diagnosis whether a given treatment should be regarded as genotoxic or not. The inhibition percentages (IP) were calculated using the total spots per wing with the following formula [16, 36]: IP = ((Genotoxine alone - Genotoxine plus active compound)/Genotoxine alone) × 100

HL60 cells [3] = test: Cytotoxicity assay, trypan blue exclusion; format: cell-based, human; conditions: for cytotoxic effect (tumoral viability): HL60, 72 h, trypan blue exclusion, at the tested concentrations
Method: Therefore, all the cells that exclude the dye are viable. Non-viable cells stained purple-violet, whereas viable ones remained unstained. Trypan blue was added to cell cultures at a 1:1 ratio, and 20 μL of cell suspension was loaded into a Neubauer chamber. The cells were counted under an inverted microscope at 100× magnification. […] Curves are expressed as survival percentage with respect to controls growing at 72 h. All data represent the average of at least three independent experiments.

[4] = tested on: Drosophila melanogaster transheterozygous larvae; test: Genotoxicity (single treatment), Drosophila wing spot test (SMART); format: in vivo; design: key to Mann-Whitney Test: n.s.: non-significant; conditions: for Mann-Whitney Test: vs negative control
Method: as §1

HL60 cells [5] = conditions: cited from earlier work
HL60 cells [6] = test: Annexin V-PI apoptosis assay (flow cytometry); format: cell-based, human; conditions: HL60, 5 h, highest concentrations
Method: The HL60 tumoral cell line was used with the aim of analyse the apoptotic induction. HL60 cells (1.5 × 10^6 cells) were treated with the same concentrations of the different compounds for 5 h. A non-treated cells control was included for each experiment. For DNA fragmentation, treated cells were collected, were centrifuged at 4000 rpm for 5 min and washed with PBS. The DNA was extracted using a commercial kit (MBL 243, Dominion mbl, Córdoba, Spain) and the resulting total DNA was treated with RNAse in order to eliminate false positive for 30 min at 37 °C. Samples of 1.5 μg of DNA were mixed with loading buffer and loaded onto a pre-solidified 2% agarose gel containing ethidium bromide. The agarose gels were run at 50 V for 90 min in TBE (Tris/Borate/EDTA) buffer and then observed and photographed under UV light. For Annexin V-PI test, Annexin V Apoptosis Detection Kit (Canvax Biotech S.L., Cordoba, Spain) was used. Briefly, cells were resuspended in 100 μL of Binding buffer solution 1× and subsequently, 5 μL AnnexinV-FITC (Fluorescein isothiocyanate) and 10 μL propidium iodide were added, and samples were incubated for 10 min at room temperature in darkness, and flow cytometry (Beckman Coulter Inc., Brea, CA, USA) was then used to analyze the rate of apoptosis.

Drosophila melanogaster = tested on: Drosophila melanogaster; design: method as in PMID 19937581; conditions: SMART, 1, 2 and 4 mg/mL; cited from earlier work

O=C1OC(C(O)CO)C(=O)C1=O (stereo not drawn) [DHA, dehydroascorbic acid]
internucleosomal DNA fragmentation ladder pattern (HL60 cells [1]): did not show any internucleosomal fragmentation ladder pattern | Large Spots (>2 Cells) m = 5 ([2]; 0.003 mM): 0.00 (0) clones per wing | Small Spots (1–2 Cells) m = 2 ([2]; 0.003 mM): 0.08 (3) clones per wing | Total Spots m = 2 ([2]; 0.003 mM): 0.08 (3) clones per wing | Twin Spots m = 5 ([2]; 0.003 mM): 0.00 (0) clones per wing | Mann-Whitney Test ([2]; 0.003 mM): n.s. | Large Spots (>2 Cells) m = 5 ([2]; 0.107 mM): 0.03 (1) clones per wing | Small Spots (1–2 Cells) m = 2 ([2]; 0.107 mM): 0.10 (4) clones per wing | Total Spots m = 2 ([2]; 0.107 mM): 0.13 (5) clones per wing | Twin Spots m = 5 ([2]; 0.107 mM): 0.00 (0) clones per wing | Mann-Whitney Test ([2]; 0.107 mM): n.s. | cytotoxicity (HL60 cells [3]; HL60, 0.7 mM): did not show cytotoxicity | cytotoxic effect (tumoral viability) (HL60 cells [3]): slight cytotoxic activities | Large Spots (>2 Cells) m = 5 ([4]; single treatment, 0.003 mM): 0.03 (1) clones per wing | Small Spots (1–2 Cells) m = 2 ([4]; single treatment, 0.003 mM): 0.10 (4) clones per wing | Total Spots m = 2 ([4]; single treatment, 0.003 mM): 0.13 (5) clones per wing | Twin Spots m = 5 ([4]; single treatment, 0.003 mM): 0.00 (0) clones per wing | Mann-Whitney Test ([4]; single treatment, 0.003 mM): n.s. | Large Spots (>2 Cells) m = 5 ([4]; single treatment, 0.107 mM): 0.03 (1) clones per wing | Small Spots (1–2 Cells) m = 2 ([4]; single treatment, 0.107 mM): 0.15 (6) clones per wing | Total Spots m = 2 ([4]; single treatment, 0.107 mM): 0.18 (7) clones per wing | Twin Spots m = 5 ([4]; single treatment, 0.107 mM): 0.00 (0) clones per wing | Mann-Whitney Test ([4]; single treatment, 0.107 mM): n.s. | Total Spots m = 2 ([4]; single treatment, 0.107 mM, listed as dehydroascorbic acid): 0.18 clones per wing

CC1=C(/C=C/C(C)=C/C=C/C(C)=C/C=C/C=C(C)/C=C/C=C(C)/C=C/C2=C(C)CCCC2(C)C)C(C)(C)CCC1 [β-carotene]
internucleosomal DNA fragmentation ladder pattern (HL60 cells [1]): did not show any internucleosomal fragmentation ladder pattern | inhibition at 0.0003 µM ([2]; Drosophila melanogaster, ip, 0.0003 μM, against H2O2 120 mM, read-out: inhibition percentage (IP) of genotoxicity): 100% | Large Spots (>2 Cells) m = 5 ([2]; 0.0003 μM): 0.00 (0) clones per wing | Small Spots (1–2 Cells) m = 2 ([2]; 0.0003 μM): 0.00 (0) clones per wing | Total Spots m = 2 ([2]; 0.0003 μM): 0.00 (0) clones per wing | Twin Spots m = 5 ([2]; 0.0003 μM): 0.00 (0) clones per wing | Mann-Whitney Test ([2]; 0.0003 μM): n.s. | Large Spots (>2 Cells) m = 5 ([2]; 0.0689 μM): 0.03 (1) clones per wing | Small Spots (1–2 Cells) m = 2 ([2]; 0.0689 μM): 0.08 (3) clones per wing | Total Spots m = 2 ([2]; 0.0689 μM): 0.11 (4) clones per wing | Twin Spots m = 5 ([2]; 0.0689 μM): 0.00 (0) clones per wing | Mann-Whitney Test ([2]; 0.0689 μM): n.s. | ID50 (HL60 cells [5]): 27 µM | apoptosis by Annexin V/PI versus negative control (HL60 cells [6]): induced apoptosis | Large Spots (>2 Cells) m = 5 ([4]; single treatment, 0.0003 μM): 0.00 (0) clones per wing | Small Spots (1–2 Cells) m = 2 ([4]; single treatment, 0.0003 μM): 0.08 (3) clones per wing | Total Spots m = 2 ([4]; single treatment, 0.0003 μM): 0.08 (3) clones per wing | Twin Spots m = 5 ([4]; single treatment, 0.0003 μM): 0.00 (0) clones per wing | Mann-Whitney Test ([4]; single treatment, 0.0003 μM): n.s. | Large Spots (>2 Cells) m = 5 ([4]; single treatment, 0.0689 μM): 0.03 (1) clones per wing | Small Spots (1–2 Cells) m = 2 ([4]; single treatment, 0.0689 μM): 0.03 (1) clones per wing | Total Spots m = 2 ([4]; single treatment, 0.0689 μM): 0.05 (2) clones per wing | Twin Spots m = 5 ([4]; single treatment, 0.0689 μM): 0.00 (0) clones per wing | Mann-Whitney Test ([4]; single treatment, 0.0689 μM): n.s. | detoxification of the mutation induced by doxorubicin (Drosophila melanogaster): up to 95%

OO [H2O2, hydrogen peroxide, reference compound]
Large Spots (>2 Cells) m = 5 ([4]; positive control alone, 120 mM): 0.13 (5) clones per wing | Small Spots (1–2 Cells) m = 2 ([4]; positive control alone, 120 mM): 0.38 (15) clones per wing | Total Spots m = 2 ([4]; positive control alone, 120 mM): 0.52 clones per wing and 0.52 (21) clones per wing | Twin Spots m = 5 ([4]; positive control alone, 120 mM): 0.03 (1) clones per wing | Mann-Whitney Test ([4]; positive control alone, 120 mM): * (*: significant (p ≤ 0.05))

CC1=C[C@H](O)CC(C)(C)[C@H]1/C=C/C(C)=C/C=C/C(C)=C/C=C/C=C(C)/C=C/C=C(C)/C=C/C1=C(C)C[C@@H](O)CC1(C)C [Lutein, lutein]
internucleosomal DNA fragmentation ladder pattern (HL60 cells [1]): did not show any internucleosomal fragmentation ladder pattern | Large Spots (>2 Cells) m = 5 ([2]; 0.039 μM): 0.06 (2) clones per wing | Small Spots (1–2 Cells) m = 2 ([2]; 0.039 μM): 0.06 (2) clones per wing | Total Spots m = 2 ([2]; 0.039 μM): 0.13 (4) clones per wing | Twin Spots m = 5 ([2]; 0.039 μM): 0.00 (0) clones per wing | Mann-Whitney Test ([2]; 0.039 μM): n.s. | Large Spots (>2 Cells) m = 5 ([2]; 0.615 μM): 0.16 (5) clones per wing | Small Spots (1–2 Cells) m = 2 ([2]; 0.615 μM): 0.25 (8) clones per wing | Total Spots m = 2 ([2]; 0.615 μM): 0.47 (15) clones per wing | Twin Spots m = 5 ([2]; 0.615 μM): 0.06 (2) clones per wing | Mann-Whitney Test ([2]; 0.615 μM): * (*: significant (p ≤ 0.05)) | Total Spots m = 2 ([2]; 0.615 μM, listed as lutein): 0.47 clones per wing | cytotoxic effect (tumoral viability) (HL60 cells [3]): did not observe any cytotoxic effect | Large Spots (>2 Cells) m = 5 ([4]; single treatment, 0.039 μM): 0.08 (3) clones per wing | Small Spots (1–2 Cells) m = 2 ([4]; single treatment, 0.039 μM): 0.15 (6) clones per wing | Total Spots m = 2 ([4]; single treatment, 0.039 μM): 0.23 (9) clones per wing | Twin Spots m = 5 ([4]; single treatment, 0.039 μM): 0.00 (0) clones per wing | Mann-Whitney Test ([4]; single treatment, 0.039 μM): n.s. | Large Spots (>2 Cells) m = 5 ([4]; single treatment, 0.615 μM): 0.08 (3) clones per wing | Small Spots (1–2 Cells) m = 2 ([4]; single treatment, 0.615 μM): 0.33 (13) clones per wing | Total Spots m = 2 ([4]; single treatment, 0.615 μM): 0.45 (18) clones per wing | Twin Spots m = 5 ([4]; single treatment, 0.615 μM): 0.05 (2) clones per wing | Mann-Whitney Test ([4]; single treatment, 0.615 μM): n.s. | Total Spots m = 2 ([4]; single treatment, 0.615 μM, listed as lutein): 0.45 clones per wing
